ChEMBL document CHEMBL1821609, “Combined SVM-based and docking-based virtual screening for retrieving novel inhibitors of c-Met” (Eur J Med Chem, 2011)

target: Hepatocyte growth factor receptor (Homo sapiens, UniProt P08581)
Sequence (P08581 whole entry): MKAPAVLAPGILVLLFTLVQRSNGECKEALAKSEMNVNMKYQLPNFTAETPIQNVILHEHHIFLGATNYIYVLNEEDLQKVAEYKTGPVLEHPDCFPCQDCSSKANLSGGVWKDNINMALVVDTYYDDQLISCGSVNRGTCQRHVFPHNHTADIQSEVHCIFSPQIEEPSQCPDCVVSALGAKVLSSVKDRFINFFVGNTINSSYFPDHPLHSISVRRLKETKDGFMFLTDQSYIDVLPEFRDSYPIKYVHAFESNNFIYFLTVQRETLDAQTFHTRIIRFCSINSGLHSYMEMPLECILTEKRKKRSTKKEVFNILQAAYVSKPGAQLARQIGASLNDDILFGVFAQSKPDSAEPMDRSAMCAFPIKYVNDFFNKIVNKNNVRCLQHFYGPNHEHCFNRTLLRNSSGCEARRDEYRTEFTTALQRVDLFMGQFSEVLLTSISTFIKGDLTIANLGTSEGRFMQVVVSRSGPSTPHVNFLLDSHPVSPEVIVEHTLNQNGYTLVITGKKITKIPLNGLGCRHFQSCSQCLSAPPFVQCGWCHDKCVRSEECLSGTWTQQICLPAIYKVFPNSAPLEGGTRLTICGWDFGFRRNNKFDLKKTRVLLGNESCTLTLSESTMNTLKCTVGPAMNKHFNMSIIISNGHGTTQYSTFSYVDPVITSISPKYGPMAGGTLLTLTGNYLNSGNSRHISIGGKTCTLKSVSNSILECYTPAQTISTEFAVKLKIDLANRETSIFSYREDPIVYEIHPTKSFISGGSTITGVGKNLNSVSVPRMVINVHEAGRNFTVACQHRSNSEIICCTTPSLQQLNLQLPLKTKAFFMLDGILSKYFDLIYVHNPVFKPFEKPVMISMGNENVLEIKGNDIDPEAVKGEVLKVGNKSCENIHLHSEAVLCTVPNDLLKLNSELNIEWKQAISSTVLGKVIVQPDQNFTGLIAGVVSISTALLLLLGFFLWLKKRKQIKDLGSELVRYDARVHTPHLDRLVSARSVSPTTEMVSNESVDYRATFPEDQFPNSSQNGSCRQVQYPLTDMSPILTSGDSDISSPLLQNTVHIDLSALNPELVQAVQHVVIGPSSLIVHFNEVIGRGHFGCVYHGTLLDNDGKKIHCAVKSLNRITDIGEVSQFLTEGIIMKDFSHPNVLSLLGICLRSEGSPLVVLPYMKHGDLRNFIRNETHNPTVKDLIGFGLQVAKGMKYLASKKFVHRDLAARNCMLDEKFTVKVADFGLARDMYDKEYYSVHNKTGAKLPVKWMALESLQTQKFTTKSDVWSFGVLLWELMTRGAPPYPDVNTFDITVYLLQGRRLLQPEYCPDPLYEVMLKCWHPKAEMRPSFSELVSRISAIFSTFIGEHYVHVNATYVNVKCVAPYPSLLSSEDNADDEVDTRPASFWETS
Description: Inhibition of human c-MET

| SMILES | IC50 |
| --- | --- |
| Cc1cccc2c1NC(=O)/C2=N\NC(=O)Cc1ccc(O)c(Cl)c1 | 20 nM |
| COc1cc2c(Oc3ccc(-c4cnc(Cc5ccc(F)cc5)n(C)c4=O)cc3F)ccnc2cc1OCCCN1CCOCC1 | 17 nM |
| COc1cc2nccc(Oc3ccc(-c4cnc(Nc5cccc(F)c5)n(C)c4=O)cc3F)c2cc1OC | 38 nM |
| COc1cc2c(Oc3ccc(-c4cnc(Cc5ccccc5)n(C)c4=O)cc3F)ccnc2cc1OCCCN1CCN(C)CC1 | 9.2 nM |
| Cc1[nH]c(/C=C2\C(=O)Nc3ccc(S(=O)(=O)N(C)c4cccc(Cl)c4)cc32)c(C)c1CCCN1CCOCC1 | 170 nM |
| COc1cc2c(Oc3ccc(-c4cnc(Cc5ccccc5)n(C)c4=O)cc3F)ccnc2cc1OCCCN1CCOCC1 | 17 nM |
| COc1cc2nccc(Oc3ccc(NC(=O)NCC(=O)N(C)C)nc3)c2cc1OC | 9640 nM |
| Cn1cc(CC(=O)N/N=C2\C(=O)Nc3ccc(C(=O)N4CCCC4CN4CCCC4)c(Cl)c32)ccc1=O (stereo unspecified) | 4150 nM |
| COc1cc2c(Oc3ccc(-c4cnc(Nc5ccc(F)cc5)n(C)c4=O)cc3F)ccnc2cc1OCCCN1CCOCC1 | 4.9 nM |
| COc1cc2nccc(Oc3ccc(-c4cnc(C(N)c5ccccc5)n(C)c4=O)cc3F)c2cc1OC (stereo unspecified) | 72 nM |
| Cc1cc(CCN2CCCC2)c(C)c2c1N(CCN1CCCCC1)C(=O)/C2=N\NC(=O)C(C)c1ccc(O)cc1 (stereo unspecified) | 200 nM |
| CCN1CCN(CCCOc2cc3nccc(Oc4ccc(-c5cnc(Cc6ccccc6)n(C)c5=O)cc4F)c3cc2OC)CC1 | 21 nM |
| O=C(Cc1ccc2c(c1)CCO2)N/N=C1\C(=O)Nc2cc(C(=O)NCCCO)cc(Br)c21 | 65 nM |
| CN(CCN1CCN(N)CC1)Cc1ccc(-c2cc3nccc(Oc4ccc(NC(=O)N5CCN(c6ccccc6)C5=O)cc4F)c3s2)cc1 | 28 nM |
| CC(C(=O)NN=C1C(=O)Nc2ccc(C(=O)N3CCCC3CN3CCCC3)c(Cl)c21)c1ccc(F)cc1 (stereo unspecified) | 430 nM |
| O=C(Cc1ccc2c(c1)CCO2)NN=C1C(=O)Nc2cc(C(=O)NCN3CCOCC3)cc(Br)c21 | 0.7 nM |
| Cc1[nH]c(/C=C2\C(=O)Nc3ccc(S(=O)(=O)N4CCc5ccccc54)cc32)c(C)c1C(=O)N1CCN(C)CC1 | 40 nM |
| COc1cc2nccc(Oc3ccc(NC(=O)NCCc4c(Cl)cccc4Cl)nc3)c2cc1OC | 5200 nM |
| CN1CCN(c2cnc3cccc(OCc4cccc([N+](=O)[O-])c4)c3c2)CC1 | 57 nM |
| CC(C)(C)OC(=O)c1cnc2ccn(S(=O)(=O)c3ccccc3[N+](=O)[O-])c2c1 | 20 nM |
| CN(C)CCNC(=O)c1cc(Br)c2c(c1)NC(=O)/C2=N\NC(=O)Cc1ccc2c(c1)CCO2 | 100 nM |

Next, values leading:

| IC50 | SMILES |
| --- | --- |
| 6600 nM | O=C(Nc1ccc(Oc2ccnc3ccsc23)c(F)c1)NC1CC1c1ccccc1 (stereo unspecified) |
| 300 nM | O=C(Cc1ccccc1)NC(=O)Nc1ccc(Oc2ccnc3ccsc23)cc1F |
| 181 nM | O=C(Cc1ccccc1)NC(=S)Nc1ccc(Oc2cccc3cc(-c4ncccn4)sc23)c(F)c1 |
| 430 nM | COc1cc2ncnc(Oc3ccc(NC(=O)NC(=O)c4c(F)cccc4F)nc3)c2cc1OC |
| 4400 nM | Cn1ccnc1-c1cc2nccc(Oc3ccc(NC(=O)NC(=O)c4c(F)cccc4F)nc3)c2s1 |
| 130 nM | O=C(Cc1ccccc1)NC(=S)Nc1ccc(Oc2ccnc3cc(C(=O)C4CCCO4)sc23)c(F)c1 (stereo unspecified) |
| 29 nM | Cn1cnc(-c2cc3cccc(Oc4ccc(NC(=S)NC(=O)Cc5ccccc5)cc4F)c3s2)c1 |
| 10000 nM | O=C(Nc1ccc(Oc2ccnc3ccsc23)cc1)NC1CC1c1ccccc1 (stereo unspecified) |
| 2.7 nM | COc1ccc2c(Oc3ccc(NC(=O)c4c(C)n(CC(C)(C)O)n(-c5ccccc5)c4=O)cc3F)ccnc2c1 |
| 108 nM | CCn1ccnc1-c1cc2cccc(Oc3ccc(NC(=S)NC(=O)Cc4ccccc4)cc3F)c2s1 |
